Where “and” joins values, the source holds several entries; their conditions need not be identical. Equal values may be shown once.
Experiments:
[1] = test system: Peanut PDH/ADH (AipaensisVYE8T), Arachis ipaensis, wild type; assay: ADH and PDH assay: steady-state kinetics and Tyr inhibition, peanut PDH/ADH; format: biochemical
Protocol: (§1) Kinetic parameters of purified recombinant proteins were determined from assays conducted at varying arogenate (19.5 μM-5 mM) and prephenate concentration (23.4 μM-6 mM). Standard assay conditions were 25 mM HEPES pH 7.6, 50 mM KCl and 10% (v/v) ethylene glycol, and 0.5 mM NADP^+ with varied substrate, concentrations. Reactions were initiated by addition of enzyme and incubated at 37° C. monitored every 10-15 seconds at […] using a microplate reader (Tecan Genios). Kinetic parameters were determined by fitting initial velocity data to the Michaelis-Menten equation using the Origin software (OriginLab).
(§2) Arogenate was prepared by enzymatic conversion of prephenate (Sigma-Aldrich) as previously reported^56. For Tyr inhibition assays, Tyr was dissolved in a slightly basic solution (0.025 N NaOH) due to solubility issues, thus the concentration of lysis buffer was increased to 500 mM HEPES final concentration to buffer against the changes by addition of Tyr in the reaction. Reactions containing varying amounts of Tyr (10 μM-8 mM) with 0.5 mM NADP^+ and either 1 mM arogenate or 0.8 mM prephenate were monitored as above.

[2] = target: T1, MtncADH (Mt5g083530), Medicago truncatula noncanonical arogenate dehydrogenase, wild type (Medicago truncatula, UniProt A0A217FAR3); assay: ADH and PDH assay: steady-state kinetics and Tyr inhibition, MtncADH wild type; format: biochemical; settings: kcat/Km
T1 construct: wild type
T1 sequence (A0A217FAR3 1-266): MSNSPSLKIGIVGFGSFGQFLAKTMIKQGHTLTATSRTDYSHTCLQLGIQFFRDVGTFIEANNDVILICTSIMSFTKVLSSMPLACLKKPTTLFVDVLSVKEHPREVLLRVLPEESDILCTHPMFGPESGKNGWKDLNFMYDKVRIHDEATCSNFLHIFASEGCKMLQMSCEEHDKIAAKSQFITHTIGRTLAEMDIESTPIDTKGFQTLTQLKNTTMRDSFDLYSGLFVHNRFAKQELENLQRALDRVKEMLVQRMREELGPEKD
Protocol: as §1, §2

[3] = target: T2, GmncADH (Gm14g05990), soybean (Glycine max) noncanonical arogenate dehydrogenase, wild type (Glycine max, UniProt I1M7P5); assay: ADH and PDH assay: steady-state kinetics and Tyr inhibition, GmncADH wild type; format: biochemical; settings: 0.5 mM NADP^+, pH 7.6, 37° C.
T2 construct: wild type
T2 sequence (I1M7P5 1-266): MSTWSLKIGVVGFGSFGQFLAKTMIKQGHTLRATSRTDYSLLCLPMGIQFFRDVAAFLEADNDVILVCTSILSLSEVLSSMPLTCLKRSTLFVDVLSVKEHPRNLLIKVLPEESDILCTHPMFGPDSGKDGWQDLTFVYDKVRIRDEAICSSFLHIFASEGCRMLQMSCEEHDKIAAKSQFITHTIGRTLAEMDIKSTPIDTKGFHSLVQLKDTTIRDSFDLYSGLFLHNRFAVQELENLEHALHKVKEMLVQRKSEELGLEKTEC
Protocol: as §1, §2

[4] = target: T3, Glycine max GmPDH1 variant N222D, SEQ ID NO: 2 (Glycine max, UniProt I1MYY4, N222D); assay: ADH and PDH assay: steady-state kinetics and Tyr inhibition, GmPDH1 N222D; format: biochemical, Glycine max (soybean); settings: 0.5 mM NADP^+, pH 7.6, 37° C.
T3 sequence (I1MYY4 1-271 N222D): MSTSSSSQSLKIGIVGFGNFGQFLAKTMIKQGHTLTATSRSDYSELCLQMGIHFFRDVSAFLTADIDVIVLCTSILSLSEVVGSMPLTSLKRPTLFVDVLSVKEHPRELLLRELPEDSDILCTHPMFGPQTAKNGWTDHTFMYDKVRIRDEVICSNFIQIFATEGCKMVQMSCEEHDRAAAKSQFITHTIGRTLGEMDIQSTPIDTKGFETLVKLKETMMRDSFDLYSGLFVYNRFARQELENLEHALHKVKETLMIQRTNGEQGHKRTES
Protocol: as §1, §2

[5] = target: T4, Medicago truncatula MtPDH variant C220D, SEQ ID NO: 1 (Medicago truncatula, UniProt A0A0A0R205, C220D); assay: ADH and PDH assay: steady-state kinetics and Tyr inhibition, MtPDH C220D; format: biochemical; settings: compared to wild-type MtPDH
T4 sequence (A0A0A0R205 1-268 C220D): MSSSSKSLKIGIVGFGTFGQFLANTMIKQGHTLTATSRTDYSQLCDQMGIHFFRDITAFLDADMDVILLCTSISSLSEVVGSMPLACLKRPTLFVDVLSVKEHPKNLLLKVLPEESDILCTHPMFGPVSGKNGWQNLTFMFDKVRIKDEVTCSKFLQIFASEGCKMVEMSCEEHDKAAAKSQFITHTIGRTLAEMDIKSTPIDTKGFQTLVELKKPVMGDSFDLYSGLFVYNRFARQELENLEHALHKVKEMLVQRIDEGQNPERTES
Protocol: as §1, §2

[6] = target: T5, Glycine max GmncADH variant D218N (Glycine max, UniProt I1M7P5, D218N); assay: ADH and PDH assay: steady-state kinetics and Tyr inhibition, GmncADH D218N; format: biochemical, Glycine max (soybean); settings: versus wild-type GmncADH
T5 construct: D218N by site-directed mutagenesis
T5 sequence (I1M7P5 1-266 D218N): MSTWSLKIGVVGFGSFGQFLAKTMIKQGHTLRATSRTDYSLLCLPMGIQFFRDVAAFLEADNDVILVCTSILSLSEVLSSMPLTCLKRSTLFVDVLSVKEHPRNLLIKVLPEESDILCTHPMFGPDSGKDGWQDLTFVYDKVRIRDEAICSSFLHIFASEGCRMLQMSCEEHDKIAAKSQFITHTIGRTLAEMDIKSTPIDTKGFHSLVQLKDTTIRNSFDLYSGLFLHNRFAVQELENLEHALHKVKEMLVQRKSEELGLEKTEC
Protocol: as §1, §2

[7] = test system: Methanosaeta harundinacea MhTyrAp variant Q227E; assay: Kinetic analysis of MhTyrAp Q227E mutant; format: biochemical
Protocol: FIGS. 14A-14B show a kinetic analysis of MhTyrAp wild-type and Q227E mutant enzymes. Kinetic analysis was performed with MhTyrAp wild-type (filled circle) and Q227E mutant (open square) enzymes using various concentrations of prephenate (FIG. 14A) and arogenate (FIG. 14B). Initial velocity values at each substrate concentration were fit to the Michaelis-Menten equation using Origin software. Kinetic analyses were conducted for MhTyrA wild-type using 3.41 μg of purified recombinant enzyme, and 4.56 μg and 2.28 μg of purified recombinant Q227E using prephenate and arogenate, respectively.
ADH and PDH assays were performed using purified recombinant enzymes for SsTyrA and MhTyrA Wt and Q227E mutant, while the E. coli cell lysate was used for OiTyrA as expression and purification of this enzyme was unsuccessful. Reactions contained 0.8 mM substrate (arogenate or prephenate) and 0.8 mM cofactor (NADP+ or NAD+) together with reaction buffer (25 mM HEPES pH 7.6, 50 mM KCl, 10% (v/v) ethylene glycol). For OiTyrA assays containing cell lysates, reactions were incubated for 45 minutes and analyzed using HPLC as previously reported (Schenck et al., 2015). For pure enzymes, reactions were monitored every 10-15 seconds for reduced cofactor at A340 nm using a microplate reader (Tecan Genios). Kinetic parameters of purified recombinant enzymes were determined from assays containing varying concentrations of arogenate (39.1 μM-5 mM) or prephenate (39.1 μM-5 mM) substrate and monitored 10-15 seconds for reduced cofactor at A340 nm using a microplate reader (Tecan Genios). Kinetic parameters were determined by fitting initial velocity data to the Michaelis-Menten equation using Origin software (OriginLab) from technical replicate assays (n=3). Arogenate substrate was prepared by enzymatic conversion of prephenate (Sigma-Aldrich). All enzyme assays were conducted at a reaction time and protein concentration that were in the linear range and proportional to reaction velocity.

[8] = arogenate versus prephenate, from references 29, 34; cited from earlier work

Molecule | Km ([1]; 0.5 mM NADP^+, pH 7.6, 37° C.) [mM] | kcat ([1]; 0.5 mM NADP^+, pH 7.6, 37° C.) [s⁻¹] | kcat/Km ([1]; 0.5 mM NADP^+, pH 7.6, 37° C.) | kcat/Km ([1]; FIG. 7A, with NADP^+) [mM⁻¹ s⁻¹] | fold more efficient (preference) with arogenate over prephenate [2] | kcat [3] [s⁻¹] | kcat [4] [s⁻¹] | fold lower Km [5] [fold] | fold reduction of kcat/Km for ADH [6] [fold] | fold higher Km than that of wild-type for prephenate [7] [fold] | fold higher catalytic efficiency with arogenate than with prephenate [7] | kcat ([7]; NADP+ cofactor, pH 7.6) [s⁻¹] | kcat/Km ([7]; NADP+ cofactor, pH 7.6) | Km ([7]; NADP+ cofactor, pH 7.6, read-out: Km) | substrate specificity (in words) [8]
N[C@@H](CC1(C(=O)O)C=CC(O)C=C1)C(=O)O (stereo partly drawn) [arogenate] | 0.28 ± 0.03 | 3.2 ± 0.1 | 11,430 M^−1 s^−1 | 11.6 | ~6,200 fold and 6,190 fold | 27.7 | 27.8 | 3 | ~6 | 10 | roughly 2 fold | 0.704 ± 0.06 | 200 M⁻¹ s⁻¹ and 213 ± 10 M⁻¹ s⁻¹ | 3.3 mM and 3.29 mM | –
AaPDH: prephenate dehydrogenase from Aquifex aeolicus, PDB 3GGG (protein, A. aeolicus; misc_feature (1)..(281): A.aeolicus AaPDH, prephenate dehydrogenase from Aquifex aeolicus, PDB 3GGG) MQNVLIVGVGFMGGSFAKSLRRSGFKGKIYGYDINPESISKAVDLGIIDEGTTSIAKVEDFSPDFVMLSSPVRTFREIAKKLSYILSEDATVTDQGSVKGKLVYDLENILGKRFVGGHPIAGTEKSGVEYSLDNLYEGKKVILTPTKKTDKKRLKLVKRVWEDVGGVVEYMSPELHDYVFGVVSHLPHAVAFALVDTLIHMSTPEVDLFKYPGGGFKDFTRIAKSDPIMWRDIFLENKENVMKAIEGFEKSLNHLKELIVREAEEELVEYLKEVKIKRMEI | – | – | – | – | – | – | – | – | – | – | – | – | – | – | prefers prephenate
